Test [1] has as its target T1, FRL-PSI (far-red light-acclimated Photosystem I trimer) (Fischerella thermalis, UniProt G6FME9+G6FMF0).
T1 construct: gene psaA; native trimer from FRL-grown cells, DM-solubilised, sucrose gradients; 36 subunits (12 per monomer), ~1 MDa; with Photosystem I reaction center subunit II; Photosystem I reaction center subunit IV; Photosystem I reaction center subunit VIII; Photosystem I reaction center subunit XII; Photosystem I 4.8K protein
Nature of the test: cryo-EM structure ([…] Å); reversed-phase HPLC of extracted pigments. The class given is binding. As to conditions: presence shown by HPLC.

Test [2] concerns the target T1, FRL-PSI (far-red light-acclimated Photosystem I trimer). The test is described as follows: reversed-phase HPLC of extracted pigments. It is filed as binding. As to conditions: native complex; site not assigned (modelled as beta-carotene).
Test [3] addresses Far-red light-acclimated Photosystem I (FRL-PSI) monomer from Fischerella thermalis PCC 7521 (Fischerella thermalis PCC 7521) (UniProt G6FW50). The test is described as follows: cryo-EM structure; single-particle cryo-EM of trimeric FRL-PSI isolated from FRL-grown F. thermalis; plunge-frozen in 300 mM tricine pH 8.0, 50 mM NaCl; 178,666 particles, C3 symmetry, global resolution 3.19 Å.

As a reminder, the stoichiometry N is the number of molecules, sites or subunits per partner or assembly.

With `C=Cc1c(C=O)c2[n]3c1=CC1=NC(=Cc4c(C)c5c([n]4[Mg]3)C(=C3N=C(C=2)C(C)C3CCC(=O)OCC=C(C)CCCC(C)CCCC(C)CCCC(C)C)C(C(=O)OC)C5=O)C(CC)=C1C` (stereo not shown) [Chl f], the “cryo-EM structure (3.19 Å); reversed-phase HPLC of extracted pigments” value in test [1] (sites A20, A21, B30, B37 modelled as Chl f, assigned indirectly from environment) was “sites of Chl A20, Chl A21, Chl B30, and Chl B37, accounting for four”.

On to `CC1=C(/C=C/C(C)=C/C=C/C(C)=C/C=C/C=C(C)/C=C/C=C(C)/C=C/C2=C(C)C(=O)CCC2(C)C)C(C)(C)CCC1` [echinenone], for which the “reversed-phase HPLC of extracted pigments” value in test [2] was “both complexes contain a mixture of β-carotene and echinenone”.

In the case of `CC1=C(/C=C/C(C)=C/C=C/C(C)=C/C=C/C=C(C)/C=C/C=C(C)/C=C/C2=C(C)CCCC2(C)C)C(C)(C)CCC1` [β-carotene], in test [1] (not distinguishable from echinenone in the map), the “cryo-EM structure (3.19 Å); reversed-phase HPLC of extracted pigments” value is recorded as “all carotenoids are modeled as β-carotene (BCR)”.

In test [3], “Far-red light-acclimated Photosystem I (FRL-PSI) monomer from Fischerella thermalis PCC 7521 (from UniProt G6FW50 1-81; G6FQU3 1-72) (complex)” showed a stoichiometry N of 3.

Values taken from publication PMC7002129, “The structure of Photosystem I acclimated to far-red light illuminates an ecologically important acclimation process in photosynthesis” (Science Advances, 2020).
